19 compounds from patent US11434242B2, “Dopamine-b-hydroxylase inhibitors” (BIAL-PORTELA & Cª, S.A., priority 2017, dated 2022) can be followed below.

Structures are written as SMILES.

For this experiment, the target named is T1, Dopamine beta hydroxylase (Homo sapiens, UniProt P09172).
T1 construct: 125 μl of plasma; tissue Instituto Português do Sangue Transplantação; host or cells: human plasma from healthy donors
T1 sequence (P09172 40-617 limits assumed): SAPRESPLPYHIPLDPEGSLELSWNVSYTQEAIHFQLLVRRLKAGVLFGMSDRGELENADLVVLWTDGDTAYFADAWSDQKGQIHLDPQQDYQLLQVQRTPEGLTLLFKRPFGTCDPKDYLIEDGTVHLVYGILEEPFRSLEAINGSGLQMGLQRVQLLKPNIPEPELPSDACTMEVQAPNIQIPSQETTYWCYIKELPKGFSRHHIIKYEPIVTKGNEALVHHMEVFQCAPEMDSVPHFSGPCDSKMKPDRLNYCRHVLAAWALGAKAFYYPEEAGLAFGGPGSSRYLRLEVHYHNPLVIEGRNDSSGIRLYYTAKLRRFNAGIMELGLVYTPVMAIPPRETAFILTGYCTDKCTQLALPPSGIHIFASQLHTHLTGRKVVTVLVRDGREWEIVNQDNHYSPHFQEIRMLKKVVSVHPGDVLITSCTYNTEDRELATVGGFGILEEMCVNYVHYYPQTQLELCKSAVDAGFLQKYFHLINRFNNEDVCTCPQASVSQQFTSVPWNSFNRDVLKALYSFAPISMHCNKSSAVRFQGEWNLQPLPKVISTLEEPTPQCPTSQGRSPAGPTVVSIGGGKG
Description: Dopamine beta hydroxylase activity in human plasma. Type of experiment: biochemical. As to conditions: for Plasma (0.01 μM), activity in % of control: inhibitor 0.01 μM; for Plasma (0.1 μM), activity in % of control: inhibitor 0.1 μM. The procedure, abridged: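 Healthy-donor human plasma pre-incubated 10 min at 37° C with compound at final 10, 100 or 1000 nM in pH 5.0 acetate buffer with ascorbate, fumarate, pargyline, N-ethylmaleimide, catalase and copper sulfate. Tyramine substrate then added for 45 min; octopamine formed was isolated by SCX cartridge, periodate-converted and read at 330 nm; activity given as % control.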

Take `Cn1c(CC(=O)NC[C@@H]2CCCO2)c2n(c1=S)C[C@H](c1c(F)ccc(Cl)c1F)C2` [Example 336, 2-((S)-6-(3-chloro-2,6-difluorophenyl)-2-methyl-3-thioxo-2,5,6,7-tetrahydro-3H-pyrrolo[1,2-c]imidazol-1-yl)-N—(((S)-tetrahydrofuran-2-yl)methyl)acetamide]: the “Plasma (0.01 μM), activity in % of control” value is on record as 50.0 % of control and the “Plasma (0.1 μM), activity in % of control” value was 9.4 % of control.
Turning to `Cn1c(CC(=O)NC[C@H]2CCCO2)c2n(c1=S)C[C@H](c1c(F)ccc(Cl)c1F)C2` [Example 337, 2-((S)-6-(3-chloro-2,6-difluorophenyl)-2-methyl-3-thioxo-2,5,6,7-tetrahydro-3H-pyrrolo[1,2-c]imidazol-1-yl)-N—(((R)-tetrahydrofuran-2-yl)methyl)acetamide], the “Plasma (0.01 μM), activity in % of control” value was 48.2 % of control and the “Plasma (0.1 μM), activity in % of control” value was 9.4 % of control.
In the case of `Cn1cc(CNC(=O)Cc2c3n(c(=S)n2C)C[C@H](c2c(F)ccc(Cl)c2F)C3)cn1` [Example 338, (S)-2-(6-(3-chloro-2,6-difluorophenyl)-2-methyl-3-thioxo-2,5,6,7-tetrahydro-3H-pyrrolo[1,2-c]imidazol-1-yl)-N-((1-methyl-1H-pyrazol-4-yl)methyl)acetamide], the “Plasma (0.01 μM), activity in % of control” value was 36.4 % of control and the “Plasma (0.1 μM), activity in % of control” value is given as 6.2 % of control.
The matching figures for `Cn1cc(CNC(=O)Cc2c3n(c(=S)n2C)C[C@@]2(c4cc(Cl)ccc4F)C[C@@H]32)cn1` [Example 339, 2-((5aS,6aR)-5a-(5-chloro-2-fluorophenyl)-2-methyl-3-thioxo-2,3,5,5a,6,6a-hexahydrocyclopropa[3,4]pyrrolo[1,2-c]imidazol-1-yl)-N-((1-methyl-1H-pyrazol-4-yl)methyl)acetamide]: 42.3 % of control and 4.3 % of control.
For the compound `Cn1c(CC(=O)Nc2nccs2)c2n(c1=S)C[C@@H](c1c(F)c(F)cc(F)c1F)C2` [Example 340, (R)-2-(2-methyl-6-(2,3,5,6-tetrafluorophenyl)-3-thioxo-2,5,6,7-tetrahydro-3H-pyrrolo[1,2-c]imidazol-1-yl)-N-(thiazol-2-yl)acetamide], the “Plasma (0.01 μM), activity in % of control” value was 87.6 % of control and the “Plasma (0.1 μM), activity in % of control” value is 27.0 % of control.
With `Cl.Cn1c(CCNC2CCCCC2)c2n(c1=S)C[C@@]1(c3cc(Br)ccc3F)C[C@@H]21` [Example 341, (5aS,6aR)-5a-(5-bromo-2-fluorophenyl)-1-(2-(cyclohexylamino)ethyl)-2-methyl-5,5a,6,6a-tetrahydrocyclopropa[3,4]pyrrolo[1,2-c]imidazole-3(2H)-thione hydrochloride], the “Plasma (0.01 μM), activity in % of control” value is 91.1 % of control and the “Plasma (0.1 μM), activity in % of control” value is recorded as 33.6 % of control.
Take `Cn1c(CC(=O)N[C@@H]2CCNC2=O)c2n(c1=S)C[C@H](c1c(F)ccc(Br)c1F)C2` [Example 342, 2-((S)-6-(3-bromo-2,6-difluorophenyl)-2-methyl-3-thioxo-2,5,6,7-tetrahydro-3H-pyrrolo[1,2-c]imidazol-1-yl)-N—((R)-2-oxopyrrolidin-3-yl)acetamide]: the “Plasma (0.01 μM), activity in % of control” value is listed as 66.6 % of control and the “Plasma (0.1 μM), activity in % of control” value is given as 16.5 % of control.
With `Cl.Cn1c(CCNCc2ccccn2)c2n(c1=S)C[C@@]1(c3cc(Cl)ccc3F)C[C@@H]21` [Example 343, (5aS,6aR)-5a-(5-chloro-2-fluorophenyl)-2-methyl-1-(2-((pyridin-2-ylmethyl)amino)ethyl)-5,5a,6,6a-tetrahydrocyclopropa[3,4]pyrrolo[1,2-c]imidazole-3(2H)-thione Hydrochloride], the “Plasma (0.01 μM), activity in % of control” value was 94.9 % of control and the “Plasma (0.1 μM), activity in % of control” value is given as 59.5 % of control.
For the compound `Cn1c(CC(=O)N2CCC[C@@H]2C(F)(F)F)c2n(c1=S)C[C@@H](c1c(F)ccc(F)c1F)C2` [Example 344, 2-((R)-2-methyl-3-thioxo-6-(2,3,6-trifluorophenyl)-2,5,6,7-tetrahydro-3H-pyrrolo[1,2-c]imidazol-1-yl)-1-((R)-2-(trifluoromethyl)pyrrolidin-1-yl)ethan-1-one], the “Plasma (0.01 μM), activity in % of control” value is reported as 88.2 % of control and the “Plasma (0.1 μM), activity in % of control” value is given as 73.7 % of control.
Consider `Cn1c(CC(=O)NC2CCCC2C#N)c2n(c1=S)C[C@@H](c1c(F)ccc(F)c1F)C2` (stereo partly drawn) [Example 345, N-(2-cyanocyclopentyl)-2-((R)-2-methyl-3-thioxo-6-(2,3,6-trifluorophenyl)-2,5,6,7-tetrahydro-3H-pyrrolo[1,2-c]imidazol-1-yl)acetamide], for which the “Plasma (0.01 μM), activity in % of control” value is 77.2 % of control and the “Plasma (0.1 μM), activity in % of control” value was 40.3 % of control.
The matching figures for `Cl.Cn1cc(CNCCc2c3n(c(=S)n2C)C[C@@]2(c4cc(Cl)ccc4F)C[C@@H]32)cn1` [Example 346, (5aS,6aR)-5a-(5-chloro-2-fluorophenyl)-2-methyl-1-(2-(((1-methyl-1H-pyrazol-4-yl)methyl)amino)ethyl)-5,5a,6,6a-tetrahydrocyclopropa[3,4]pyrrolo[1,2-c]imidazole-3(2H)-thione Hydrochloride]: 109.6 % of control and 74.9 % of control.
As for `Cn1c(CC(=O)Nc2cnoc2)c2n(c1=S)C[C@@H](c1c(F)ccc(F)c1F)C2` [Example 347, (R)—N-(isoxazol-4-yl)-2-(2-methyl-3-thioxo-6-(2,3,6-trifluorophenyl)-2,5,6,7-tetrahydro-3H-pyrrolo[1,2-c]imidazol-1-yl)acetamide], the “Plasma (0.01 μM), activity in % of control” value is 79.0 % of control and the “Plasma (0.1 μM), activity in % of control” value is on record as 17.7 % of control.
The matching figures for `Cn1c(CC(=O)N2CC[C@H](C#N)C2)c2n(c1=S)C[C@@H](c1c(F)ccc(F)c1F)C2` [Example 348, (S)-1-(2-((R)-2-methyl-3-thioxo-6-(2,3,6-trifluorophenyl)-2,5,6,7-tetrahydro-3H-pyrrolo[1,2-c]imidazol-1-yl)acetyl)pyrrolidine-3-carbonitrile]: 92.4 % of control and 44.8 % of control.
On to `Cc1nnc(NC(=O)Cc2c3n(c(=S)n2C)C[C@H](c2c(F)ccc(Cl)c2F)C3)o1` [Example 349, (S)-2-(6-(3-chloro-2,6-difluorophenyl)-2-methyl-3-thioxo-2,5,6,7-tetrahydro-3H-pyrrolo[1,2-c]imidazol-1-yl)-N-(5-methyl-1,3,4-oxadiazol-2-yl)acetamide], for which the “Plasma (0.01 μM), activity in % of control” value is listed as 72.3 % of control and the “Plasma (0.1 μM), activity in % of control” value is reported as 12.5 % of control.
The matching figures for `Cn1cc(NC(=O)Cc2c3n(c(=S)n2C)C[C@H](c2c(F)ccc(Cl)c2F)C3)cn1` [Example 350, (S)-2-(6-(3-chloro-2,6-difluorophenyl)-2-methyl-3-thioxo-2,5,6,7-tetrahydro-3H-pyrrolo[1,2-c]imidazol-1-yl)-N-(1-methyl-1H-pyrazol-4-yl)acetamide]: 85.7 % of control and 28.2 % of control.
For `Cn1c(CC(=O)Nc2cnsc2)c2n(c1=S)C[C@@H](c1c(F)ccc(F)c1F)C2` [Example 351, (R)—N-(isothiazol-4-yl)-2-(2-methyl-3-thioxo-6-(2,3,6-trifluorophenyl)-2,5,6,7-tetrahydro-3H-pyrrolo[1,2-c]imidazol-1-yl)acetamide], the “Plasma (0.01 μM), activity in % of control” value is reported as 46.2 % of control and the “Plasma (0.1 μM), activity in % of control” value was 16.5 % of control.
As to `Cn1c(CC(=O)NCC2CCOCC2)c2n(c1=S)C[C@H](c1c(F)ccc(Cl)c1F)C2` [Example 352, (S)-2-(6-(3-chloro-2,6-difluorophenyl)-2-methyl-3-thioxo-2,5,6,7-tetrahydro-3H-pyrrolo[1,2-c]imidazol-1-yl)-N-((tetrahydro-2H-pyran-4-yl)methyl)acetamide], the “Plasma (0.01 μM), activity in % of control” value is 40.8 % of control and the “Plasma (0.1 μM), activity in % of control” value is given as 10.9 % of control.
As for `Cn1c(CC(=O)N2CCC(CF)C2)c2n(c1=S)C[C@@H](c1c(F)ccc(F)c1F)C2` (stereo partly drawn) [Example 353, 1-(3-(fluoromethyl)pyrrolidin-1-yl)-2-((R)-2-methyl-3-thioxo-6-(2,3,6-trifluorophenyl)-2,5,6,7-tetrahydro-3H-pyrrolo[1,2-c]imidazol-1-yl)ethan-1-one], the “Plasma (0.01 μM), activity in % of control” value was 90.6 % of control and the “Plasma (0.1 μM), activity in % of control” value is listed as 38.4 % of control.
Take `Cn1c(CC(=O)N[C@@H]2CCCNC2=O)c2n(c1=S)C[C@@H](c1c(F)ccc(F)c1F)C2` [Example 354, 2-((R)-2-methyl-3-thioxo-6-(2,3,6-trifluorophenyl)-2,5,6,7-tetrahydro-3H-pyrrolo[1,2-c]imidazol-1-yl)-N—((R)-2-oxopiperidin-3-yl)acetamide]: the “Plasma (0.01 μM), activity in % of control” value is on record as 106.2 % of control and the “Plasma (0.1 μM), activity in % of control” value is given as 53.4 % of control.
